We go through nine compounds from patent US4874760A, “4,7-dihydroisothiazolo(5,4-b)pyridine derivatives and cardiovascular treating agents containing said derivatives” (Toa Eiyo, Ltd., priority 1987, dated 1989).

In experiment [1] the test system is KCl-induced contraction of helical blood vessel specimen (artery). In words: Test on calcium antagonizing activity (KCl-induced contraction of helical blood vessel specimen). Further details: species or system rabbit. The conditions noted are these: contraction height at 40 mM KCl taken as 100%, 10 minutes after test compound, 37° C., read-out: ED50 (concentration which inhibits the contraction height of the control to an extent of 50%). The method, then: Female and male rabbits weighing 2 to 3 kg were used. They were anesthetized by intravenous injection of pentobarbital sodium, and sacrificed by bleeding from the femoral arteries. Immediately then, the artery was extracted from the chest, and a helical blood vessel specimen was prepared.

For experiment [2], the system named is systolic blood pressure, spontaneously hypertensive rats. In words: Antihypertensive activity test. It is filed as in vivo, rat (male spontaneously hypertensive). The conditions noted are these: oral. The text has this:
Variations in systolic blood pressure were periodically measured by a programmed electrosphygmomanometer-type blood pressure measuring device (NARCO, PE-300).

Where two headings read alike, the source gives them in different places.

Consider `COc1ccc(CCN(C)Cc2nsc3c2C(c2cccc([N+](=O)[O-])c2)C(C(=O)OCCN(C)Cc2ccccc2)=C(C)N3)cc1OC` (centres unmarked) [Ic, 2-(N-benzyl-N-methylamino)ethyl 3-[N-(2-(3,4-dimethoxyphenyl)ethyl)-N-methylaminomethyl]-6-methyl-4-(3-nitrophenyl)-4,7-dihydroisothiazolo[5,4-b]pyridine-5-carboxylate], for which the IC50 in experiment [1] (Oryctolagus cuniculus, 10 min) stood at 225 nM. For the same compound, the figures for the “Systolic blood pressure (maximum variation)” value (shortened to “Systolic blood pressure”) in experiment [2] (3 mg/kg), in experiment [2] (10 mg/kg) and in experiment [2] (30 mg/kg) were -37 mmHg, -92 mmHg and -135 mmHg, respectively.
Taken in the same sequence, the figures for `CCOC(=O)C1=C(C)Nc2snc(CN(C)CCCOc3cccc(OC)c3)c2C1c1cccc([N+](=O)[O-])c1` (centres unmarked) [Ib, ethyl 3-[N-(3-(3-methoxyphenoxy)propyl)-N-methylaminomethyl]-6-methyl-4-(3-nitrophenyl)-4,7-dihydroisothiazolo[5,4-b]pyridine-5-carboxylate] were 62 nM, -30 mmHg, -76 mmHg and -108 mmHg.
On to `CCOC(=O)C1=C(C)Nc2snc(CCN3CCN(c4ccccc4)CC3)c2C1c1cccc([N+](=O)[O-])c1` (single isomer, unassigned; (+)) [Ig, (+)-ethyl 3-[2-(4-phenyl-1-piperazinyl)ethyl]-6-methyl-4-(3-nitrophenyl)-4,7-dihydroisothiazolo[5,4-b]pyridine-5-carboxylate], for which, in experiment [1] (10 min), the IC50 was over 300 nM.
Regarding `CC1=C(C(=O)OCCN(C)Cc2ccccc2)C(c2cccc([N+](=O)[O-])c2)c2c(CN3CCN(c4ccc(F)cc4)CC3)nsc2N1` (centres unmarked) [Id, 2-(N-benzyl-N-methylamino)ethyl 3-[4-(4-fluorophenyl)-1-piperazinylmethyl]-6-methyl-4-(3-nitrophenyl)-4,7-dihydroisothiazolo[5,4-b]pyridine-5-carboxylate], the IC50 in experiment [1] (Oryctolagus cuniculus, 10 min) was over 300 nM. Besides, the “Systolic blood pressure” value in experiment [2] (1 mg/kg) is -30 mmHg; in experiment [2] (3 mg/kg), -65 mmHg; in experiment [2] (10 mg/kg), -132 mmHg; in experiment [2] (30 mg/kg), -142 mmHg.
`COC(=O)C1=C(C)NC(C)=C(C(=O)OC)C1c1ccccc1[N+](=O)[O-]` [Nifedipine, reference compound]: the IC50 in experiment [1] (Oryctolagus cuniculus, 10 min) was determined as 19.6 nM. The “Systolic blood pressure” value in experiment [2] (1 mg/kg) is -29 mmHg; in experiment [2] (3 mg/kg), -42 mmHg; in experiment [2] (10 mg/kg), -71 mmHg.
In the case of `CCOC(=O)C1=C(C)Nc2snc(CCN3CCN(c4ccc(F)cc4)CC3)c2C1c1cccc([N+](=O)[O-])c1` (centres unmarked) [If, ethyl 3-[2-(4-(4-fluorophenyl)-1-piperazinyl)ethyl]-6-methyl-4-(3-nitrophenyl)-4,7-dihyhdroisothiazolo[5,4-b]pyridine-5-carboxylate], in experiment [1], the IC50 is 63.8 nM. The “Systolic blood pressure” value is listed as -47 mmHg in experiment [2] (1 mg/kg), -54 mmHg in experiment [2] (3 mg/kg) and -102 mmHg in experiment [2] (10 mg/kg).
Consider `CCOC(=O)C1=C(C)Nc2snc(CCN3CCN(c4ccccc4)CC3)c2C1c1cccc([N+](=O)[O-])c1` (centres unmarked) [Ie, ethyl 3-[2-(4-phenyl-1-piperazinyl)ethyl]-6-methyl-4-(3-nitrophenyl)-4,7-dihydroisodithiazolo[5,4-b]pyridine-5-carboxylate], for which, in experiment [1] (Oryctolagus cuniculus, 10 min), the IC50 worked out at 33 nM. Moreover, the figures for the “Systolic blood pressure” value in experiment [2] (1 mg/kg), in experiment [2] (3 mg/kg) and in experiment [2] (10 mg/kg) were -41 mmHg, -51 mmHg and -101 mmHg, respectively.
For the compound `CCOC(=O)C1=C(C)Nc2snc(CN(C)CCc3ccc(OC)c(OC)c3)c2C1c1cccc([N+](=O)[O-])c1` (centres unmarked) [Ia, ethyl 3-[N-(2-(3,4-dimethoxyphenyl)ethyl)-N-methylaminomethyl]-6-methyl-4-(3-nitrophenyl)-4,7-dihydroisothiazolo[5,4-b]pyridine-5-carboxylate], the IC50 in experiment [1] (Oryctolagus cuniculus, 10 min) was 60 nM. The “Systolic blood pressure” value was -6 mmHg in experiment [2] (1 mg/kg), -26 mmHg in experiment [2] (3 mg/kg), -82 mmHg in experiment [2] (10 mg/kg) and -119 mmHg in experiment [2] (30 mg/kg).
For the compound `CCOC(=O)C1=C(C)Nc2snc(CCN3CCN(c4ccccc4)CC3)c2C1c1cccc([N+](=O)[O-])c1` (single isomer, unassigned; (-)) [Ih, (-)-ethyl 3-[2-(4-phenyl-1-piperazinyl)ethyl]-6-methyl-4-(3-nitrophenyl)-4,7-dihydroisothiazolo[5,4-b]pyridine-5-carboxylate], the IC50 in experiment [1] (10 min) is 25 nM. The “Systolic blood pressure” value is listed as -36 mmHg in experiment [2] (1 mg/kg), -93 mmHg in experiment [2] (3 mg/kg) and -137 mmHg in experiment [2] (10 mg/kg).
